27 compounds from patent publication US20230091047A1 (priority 2019, published 2023) can be followed below.

The structures appear in SMILES notation. Read-outs that look alike come from different tables or passages of the source. Some results are limits rather than exact numbers.

A short description of one data set: in vitro. Type of data set: cell-based. The conditions noted are these: human, HepG2 or HepG2.117 cells, ATPlite, mean value; for CC50 at 4 days: 4-days incubation (values marked with *). On the procedure: Cytotoxicity of the compounds was tested using HepG2 or HepG2.117 cells, incubated for 3 or 4 days in the presence of compounds. The viability of the cells was assessed using the PERKIN ELMER ATPlite Luminescence Assay System.”

In data set [1] the test system is HBV (HepG2.117 cell line, inducibly HBV producing). Nature of the data set: Anti-HBV activity: intracellular HBV DNA by real-time PCR in HepG2.117 cells after 3 days of treatment. Type of data set: cell-based, hepatitis B virus. On the procedure:
The anti HBV activity was measured using the HepG2.117 cell line, a stable, inducibly HBV producing cell line, which replicates HBV in the absence of doxycycline (Tet-off system). The HepG2 cell line is available from ATCCR under number HB-8065. Transfection of the HepG2 cell line can be as described in Sun and Nassal 2006 Journal of Hepatology 45 (2006) 636-645 “Stable HepG2- and Huh7-based human hepatoma cell lines for efficient regulated expression of infectious hepatitis B virus”.
For the antiviral assay, HBV replication was induced, followed by a treatment with serially diluted compound in 96-well plates. After 3 days of treatment, the antiviral activity was determined by quantification of intracellular HBV DNA using real-time PCR and an HBV specific primer set and probe.
Background: Real-time PCR tracks product formation cycle by cycle.

Where [2] appears, read: 3-days incubation (unmarked values).
Where [3] appears, read: Hepatitis B virus, HepG2.117, 72 h, HepG2.117 cells, 3 days of treatment, intracellular HBV DNA by real-time PCR; mean value; read-out: EC50 (μM, mean value).
[4] abbreviates: 3-days incubation (not marked with *).
Where [5] appears, read: Hepatitis B virus, HepG2.117, 72 h, HepG2.117 cells, intracellular HBV DNA by real-time PCR, 3 days of treatment, mean value; read-out: EC50 (μM, mean value).

`CC(C)Nc1nc2c(c(=O)n1-c1ccc(N3CC[C@@H](O)C3)cc1)C[C@@H](C)N(C(=O)c1ccc(Cl)c(Cl)c1)C2` [Compound C201, (6R)-7-(3,4-dichlorobenzoyl)-3-{4-[(3R)-3-hydroxypyrrolidin-1-yl]phenyl}-6-methyl-2-[(propan-2-yl)amino]-5,6,7,8-tetrahydropyrido[3,4-d]pyrimidin-4(3H)-one]: the CC50 at 3 days in “in vitro” (setting [2]) came to 36.8 µM. Further, the EC50 in data set [1] (setting [3]) is 0.2 µM.
In the same order, the values of `COc1ccc(CNc2nc3c(c(=O)[nH]2)CCN(C(=O)c2ccc(Br)c(Br)c2)C3)cc1` [Compound C80, 7-(3,4-dibromobenzoyl)-2-{[(4-methoxyphenyl)methyl]amino}-5,6,7,8-tetrahydropyrido[3,4-d]pyrimidin-4(3H)-one] are above 50 µM and 2.02 µM.
For `CNC(=O)c1ccc(-n2c(N[C@@H]3CCOc4ccccc43)nc3c(c2=O)C[C@@H](C)N(C(=O)c2ccc(Cl)c(Cl)c2)C3)cc1` (single isomer, unassigned) [Compound C526a], in “in vitro” (setting [4]), the CC50 at 3 days was above 50 µM. For the same compound, in data set [1] (setting [5]), the EC50 worked out at 0.28 µM.
On to `COc1ccccc1-n1c(NC(C)(C)C)nc2c(c1=O)CCN(C(=O)c1ccc(Cl)c(Cl)c1)C2` [Compound C53, 2-(tert-butylamino)-7-(3,4-dichlorobenzoyl)-3-(2-methoxyphenyl)-5,6,7,8-tetrahydropyrido[3,4-d]pyrimidin-4(3H)-one], for which half-maximal cytotoxicity in the data set “in vitro” (setting [2]) (CC50 at 3 days) was put at 31.6 µM. Besides, the concentration for a half-maximal effect (EC50) in data set [1] (setting [3]) worked out at 2.05 µM.
The compound `COc1cccc(CNc2nc3c(c(=O)n2-c2ccccc2OC)CCN(C(=O)c2ccc(Cl)c(Cl)c2)C3)c1` [Compound C18, 7-(3,4-dichlorobenzoyl)-3-(2-methoxyphenyl)-2-{[(3-methoxyphenyl)methyl]amino}-5,6,7,8-tetrahydropyrido[3,4-d]pyrimidin-4(3H)-one] came in with a CC50 at 4 days in the data set “in vitro” above 50 µM. In addition, in data set [1] (setting [3]), the EC50 was determined as 3.27 µM.
The compound `CC(C)Nc1nc2c(c(=O)n1-c1ccnnc1)CCN(C(=O)c1ccc(Cl)c(Cl)c1)C2` [Compound C134, 7-(3,4-dichlorobenzoyl)-2-[(propan-2-yl)amino]-3-(pyridazin-4-yl)-5,6,7,8-tetrahydropyrido[3,4-d]pyrimidin-4(3H)-one] displayed a half-maximal cytotoxic concentration (CC50) at 3 days in “in vitro” (setting [2]) above 50 µM. The EC50 in data set [1] (setting [3]) turned out to be 4.39 µM.
In the data set “in vitro” (setting [4]), `CNC(=O)c1ccc(-n2c(N[C@@H](C)C(C)(C)C)nc3c(c2=O)C[C@@H](C)N(C(=O)c2ccc(Cl)c(Cl)c2)C3)cc1` (single isomer, unassigned) [Compound C459b] returned a half-maximal cytotoxic concentration (CC50) at 3 days of 32.5 µM. For the same compound, the EC50 in data set [1] (setting [5]) worked out at 0.63 µM.
`CNC(=O)c1cc(C)c(-n2c(NC(C)C)nc3c(c2=O)C[C@@H](C)N(C(=O)c2ccc(Cl)c(Cl)c2)C3)c(C)c1` [Compound C391] came in with a CC50 at 3 days in the data set “in vitro” (setting [4]) above 50 µM. Moreover, the concentration for a half-maximal effect (EC50) in data set [1] (setting [5]) was 0.18 µM.
In “in vitro” (setting [2]), `CC(C)Nc1nc2c(c(=O)n1-c1ccc(-c3ncc(F)cc3F)cc1)CCN(C(=O)c1ccc(Cl)c(Cl)c1)C2` [Compound C171, 7-(3,4-dichlorobenzoyl)-3-[4-(3,5-difluoropyridin-2-yl)phenyl]-2-[(propan-2-yl)amino]-5,6,7,8-tetrahydropyrido[3,4-d]pyrimidin-4(3H)-one] registered a CC50 at 3 days of 4.6 µM. Besides, the half-maximal effective concentration (EC50) in data set [1] (setting [3]) amounted to 3.95 µM.
Consider `CNC(=O)C12C3C4C1C1C2C3C41n1c(NC(C)C)nc2c(c1=O)C[C@@H](C)N(C(=O)c1ccc(Cl)c(Cl)c1)C2` (stereo partly drawn) [Compound C456], for which, in “in vitro” (setting [4]), the CC50 at 3 days is above 50 µM. Also, in data set [1] (setting [5]), the concentration giving a half-maximal response (EC50) turned out to be 0.4 µM.
In the data set “in vitro” (setting [2]), `CC(C)Nc1nc2c(c(=O)n1-c1ccc(C(=O)N3CCOCC3)cc1)C[C@@H](C)N(C(=O)c1ccc(Cl)c(Cl)c1)C2` [Compound C168, (6R)-7-(3,4-dichlorobenzoyl)-6-methyl-3-[4-(morpholine-4-carbonyl)phenyl]-2-[(propan-2-yl)amino]-5,6,7,8-tetrahydropyrido[3,4-d]pyrimidin-4(3H)-one] returned a half-maximal cytotoxic concentration (CC50) at 3 days above 50 µM. Also, in data set [1] (setting [3]), the concentration giving a half-maximal response (EC50) was determined as 0.24 µM.
Compound `CNC(=O)c1ccc(-n2c(NC(C)C)nc3c(c2=O)C[C@@H](C)N(C(=O)c2cc(Br)c(Cl)cc2OC)C3)cc1` [Compound C523] registered a CC50 at 3 days in the data set “in vitro” (setting [4]) above 50 µM. Also, the EC50 in data set [1] (setting [5]) was 18 µM.
For the compound `CNC(=O)c1ccc(-n2c(Nc3ccon3)nc3c(c2=O)C[C@@H](C)N(C(=O)c2ccc(Cl)c(Cl)c2)C3)cc1` [Compound C278, 4-[(6R)-7-(3,4-dichlorobenzoyl)-6-methyl-2-[(1,2-oxazol-3-yl)amino]-4-oxo-5,6,7,8-tetrahydropyrido[3,4-d]pyrimidin-3(4H)-yl]-N-methylbenzamide], the CC50 at 3 days in the data set “in vitro” (setting [2]) is above 50 µM. The EC50 in data set [1] (setting [3]) is 11 µM.
In “in vitro” (setting [2]), `CC(C)Nc1nc2c(c(=O)n1-c1ccc(-c3cnccn3)cc1)CCN(C(=O)c1ccc(Cl)c(Cl)c1)C2` [Compound C176, 7-(3,4-dichlorobenzoyl)-2-[(propan-2-yl)amino]-3-[4-(pyrazin-2-yl)phenyl]-5,6,7,8-tetrahydropyrido[3,4-d]pyrimidin-4(3H)-one] yielded a CC50 at 3 days of 8.7 µM. Also, the 50% effective concentration (EC50) in data set [1] (setting [3]) was 0.57 µM.
As to `COc1ccc(CNc2nc3c(c(=O)n2CC2CCOCC2)CCN(C(=O)c2ccc(Cl)c(Cl)c2)C3)cc1` [Compound C65, 7-(3,4-dichlorobenzoyl)-2-{[(4-methoxyphenyl)methyl]amino}-3-[(oxan-4-yl)methyl]-5,6,7,8-tetrahydropyrido[3,4-d]pyrimidin-4(3H)-one], the CC50 at 3 days in the data set “in vitro” (setting [2]) stood at 37.8 µM. The 50% effective concentration (EC50) in data set [1] (setting [3]) worked out at 2.72 µM.
In turn, `CNC(=O)c1ccc(-n2c(NC(C)C)nc3c(c2=O)C[C@@H](C)N(C(=O)c2ccc(Cl)c(OC(F)F)c2)C3)cc1` [Compound C679] returned a CC50 at 3 days in “in vitro” (setting [4]) above 50 µM. Further, the EC50 in data set [1] (setting [5]) was found to be 0.21 µM.
Regarding `CNC(=O)c1ccc(-n2c(NCc3ccccc3-n3ccnc3)nc3c(c2=O)C[C@@H](C)N(C(=O)c2ccc(Cl)c(Cl)c2)C3)cc1` [Compound C485], the CC50 at 3 days in “in vitro” (setting [4]) is 24.9 µM. For the same compound, the 50% effective concentration (EC50) in data set [1] (setting [5]) is 11.9 µM.
As to `CNC(=O)c1ccc(-n2c(NC(C)c3ccc(C(F)(F)F)cc3)nc3c(c2=O)C[C@@H](C)N(C(=O)c2ccc(Cl)c(Cl)c2)C3)cc1` (stereo partly drawn) [Compound C413], in “in vitro” (setting [4]), the CC50 at 3 days came out at 6.5 µM. Moreover, in data set [1] (setting [5]), the EC50 is 0.15 µM.
In “in vitro” (setting [2]), `CC(C)Nc1nc2c(c(=O)n1-c1ccc(S(C)(=O)=O)cc1)CCN(C(=O)c1ccc3c(c1)CCO3)C2` [Compound C155, 7-(2,3-dihydro-1-benzofuran-5-carbonyl)-3-[4-(methanesulfonyl)phenyl]-2-[(propan-2-yl)amino]-5,6,7,8-tetrahydropyrido[3,4-d]pyrimidin-4(3H)-one] registered a CC50 at 3 days above 50 µM. Also, the EC50 in data set [1] (setting [3]) was 5.29 µM.
In the same order, the values of `CNC(=O)c1ccc(-n2c(N[C@H](C)c3ccccn3)nc3c(c2=O)C[C@@H](C)N(C(=O)c2ccc(Cl)c(Cl)c2)C3)cc1` (single isomer, unassigned) [Compound C320, 4-[(6R)-7-(3,4-dichlorobenzoyl)-6-methyl-4-oxo-2-{[(1*R)-1-(pyridin-2-yl)ethyl]amino}-5,6,7,8-tetrahydropyrido[3,4-d]pyrimidin-3(4H)-yl]-N-methylbenzamide] are above 50 µM and 0.27 µM.
As to `COC(=O)C12CC(n3c(NC(C)C)nc4c(c3=O)C[C@@H](C)N(C(=O)c3ccc(Cl)c(Cl)c3)C4)(C1)C2` [Compound C236], the CC50 at 3 days in the data set “in vitro” (setting [2]) was above 50 µM. Moreover, the 50% effective concentration (EC50) in data set [1] (setting [3]) is above 50 µM.
As to `CNC(=O)c1cc(-n2c(N[C@@H](C)c3ccc(C(F)(F)F)cc3)nc3c(c2=O)C[C@@H](C)N(C(=O)c2ccc(Cl)c(Cl)c2)C3)[nH]n1` [Compound C630], the cytotoxic concentration (CC50) at 3 days in “in vitro” (setting [4]) was found to be 20.7 µM. In data set [1] (setting [5]), the EC50 was 0.11 µM.
Regarding `COc1ccccc1-n1c(NCc2cccnc2)nc2c(c1=O)CCN(C(=O)c1ccc(Cl)c(Cl)c1)C2` [Compound C9, 7-(3,4-dichlorobenzoyl)-3-(2-methoxyphenyl)-2-{[(pyridin-3-yl)methyl]amino}-5,6,7,8-tetrahydropyrido[3,4-d]pyrimidin-4(3H)-one], in “in vitro”, the CC50 at 4 days is above 50 µM. Besides, the concentration giving a half-maximal response (EC50) in data set [1] (setting [3]) is 11.6 µM.
Consider `CC(C)Nc1nc2c(c(=O)n1-c1ccc(-c3cccc(N4CCOCC4)n3)cc1)CCN(C(=O)c1ccc(Cl)c(Cl)c1)C2` [Compound C173, 7-(3,4-dichlorobenzoyl)-3-{4-[6-(morpholin-4-yl)pyridin-2-yl]phenyl}-2-[(propan-2-yl)amino]-5,6,7,8-tetrahydropyrido[3,4-d]pyrimidin-4(3H)-one], for which the CC50 at 3 days in the data set “in vitro” (setting [2]) was found to be 7.8 µM. Further, the concentration for a half-maximal effect (EC50) in data set [1] (setting [3]) came out at 0.88 µM.
`COc1cc(C(=O)NC2CC2)ccc1-n1c(NC(C)C)nc2c(c1=O)C[C@@H](C)N(C(=O)c1ccc(Cl)c(C(F)(F)F)c1)C2` (single isomer, unassigned) [Compound C678a] yielded a CC50 at 3 days in “in vitro” (setting [4]) of 43 µM. The EC50 in data set [1] (setting [5]) was found to be 0.04 µM.
`CC(C)Nc1nc2c(c(=O)[nH]1)C[C@@H](C)N(C(=O)c1ccc(Cl)c(Cl)c1)C2` [Compound C384]: in “in vitro” (setting [4]), the cytotoxic concentration (CC50) at 3 days was above 50 µM. The concentration giving a half-maximal response (EC50) in data set [1] (setting [5]) was 0.75 µM.
Take `CNC(=O)c1ccc(-n2c(N[C@@H](C)c3ccc4c(c3)OCO4)nc3c(c2=O)C[C@@H](C)N(C(=O)c2ccc(Cl)c(Cl)c2)C3)cc1` (single isomer, unassigned) [Compound C414b]: the CC50 at 3 days in “in vitro” (setting [4]) was above 50 µM. For the same compound, in data set [1] (setting [5]), the half-maximal effective concentration (EC50) is 0.06 µM.

One may read the CC50 as the concentration that lowers cell viability or growth by half. What is called EC50 is the concentration giving half of the maximal effect.
